Results from ChEMBL document CHEMBL1121775, “Synthesis and antimalarial effects of N2-aryl-N4-[(dialkylamino)alkyl]- and N4-aryl-N2-[(dialkylamino)alkyl]-2,4-quinazolinediamines” (J Med Chem, 1981).
Where “and” joins values, the source holds several entries; their conditions need not be identical. Equal entries are not always repeated.

What was measured:
Plasmodium berghei [1] = assay: Antimalarial effect against trophozoite-induced Plasmodium berghei in mice (Mus musculus) at 320 mg/kg subcutaneous dose; assay type: functional
Plasmodium berghei [2] = assay: Antimalarial effect against trophozoite-induced Plasmodium berghei in mice (Mus musculus) after 20 mg/kg subcutaneous dose; assay type: functional
Plasmodium berghei [3] = assay: (§1) Antimalarial effect against trophozoite-induced Plasmodium berghei in mice (Mus musculus) at 640 mg/kg subcutaneous dose; assay type: functional; conditions: 640 mg/kg
Plasmodium berghei [4] = assay: Antimalarial effect against trophozoite-induced Plasmodium berghei in mice (Mus musculus) at 160 mg/kg subcutaneous dose; assay type: functional
[5] = The ratio of SD90 of the quinine hydrochloride, to the SD90 of the test substance for the Dose of 80 mg/kg; assay type: functional
Plasmodium berghei [6] = assay: Antimalarial effect against trophozoite-induced Plasmodium berghei in mice (Mus musculus) after 40 mg/kg subcutaneous dose; assay type: functional
Plasmodium berghei [7] = assay: Antimalarial effect against trophozoite-induced Plasmodium berghei in mice (Mus musculus) at 80 mg/kg subcutaneous dose; assay type: functional
Plasmodium berghei [8] = assay: Antimalarial activity against trophozoite-induced Plasmodium berghei in mice (Mus musculus); assay type: functional
[9] = The ratio of SD90 of the quinine hydrochloride, to the SD90 of the test substance for the Dose of >34 mg/kg; assay type: functional
Mus musculus [10] = assay: Number of mice cured at a dose of 320 mg/kg sc; assay type: functional; conditions: route subcutaneous, 320 mg/kg
Mus musculus [11] = assay: Number of mice cured at a subcutaneous dose of 640 mg/kg.; assay type: functional
Plasmodium berghei [12] = assay: Antimalarial activity against trophozoite-induced Plasmodium berghei in mice (Mus musculus) at 160 mg/kg subcutaneous dose; assay type: functional
[13] = The ratio of SD90 of the quinine hydrochloride, to the SD90 of the test substance for the Dose of 8.4 mg/kg; assay type: functional
Mus musculus [14] = assay: Number of mice cured at a dose of 640 mg/kg sc; assay type: functional; conditions: route subcutaneous
Mus musculus [15] = assay: Number of mice cured at a subcutaneous dose of 320 mg/kg.; assay type: functional
Mus musculus [16] = assay: Number of toxic deaths at a dose of 640 mg/kg; assay type: toxicity, organism-based; set-up: dose 640 mg/kg; conditions: in vivo
Mus musculus [17] = assay: Number of toxic deaths at a dose of 320 mg/kg; assay type: toxicity, organism-based; set-up: dose 320 mg/kg; conditions: in vivo
[18] = The ratio of SD90 of the quinine hydrochloride, to the SD90 of the test substance for the Dose of 40 mg/kg; assay type: functional
Mus musculus [19] = assay: Antimalarial effect against trophozoite-induced Plasmodium berghei in mice (Mus musculus) at dosage of 160 mg/kg after subcutaneous administration; No. of mice (Mus musculus) surviving after 60 days 3; assay type: functional
Mus musculus [20] = assay: Antimalarial effect against trophozoite-induced Plasmodium berghei in mice (Mus musculus) at dosage of 320 mg/kg after subcutaneous administration; No. of mice (Mus musculus) surviving after 60 days 4; assay type: functional
[21] = The ratio of SD90 of the quinine hydrochloride, to the SD90 of the test substance for the Dose of 8.5 mg/kg; assay type: functional
Mus musculus [22] = assay: Number of mice cured at a subcutaneous dose of 160 mg/kg.; assay type: functional
[23] = The ratio of SD90 of the quinine hydrochloride, to the SD90 of the test substance for the Dose of 68 mg/kg; assay type: functional
Plasmodium berghei [24] = assay: as §1; assay type: functional
Mus musculus [25] = assay: Antimalarial effect against trophozoite induced Plasmodium berghei in mice (Mus musculus) at dosage of 160 mg/kg after subcutaneous administration.; assay type: functional
Mus musculus [26] = assay: Antimalarial effect against trophozoite induced Plasmodium berghei in mice (Mus musculus) at dosage of 640 mg/kg after subcutaneous administration; No. of mice (Mus musculus) surviving after 60 days 2; assay type: functional
[27] = The ratio of SD90 of the quinine hydrochloride, to the SD90 of the test substance for the Dose of 6.3 mg/kg; assay type: functional
Mus musculus [28] = assay: Antimalarial effect against trophozoite induced Plasmodium berghei in mice (Mus musculus) at dosage of 320 mg/kg after subcutaneous administration; No. of mice (Mus musculus) surviving after 60 days 3; assay type: functional
[29] = The ratio of SD90 of the quinine hydrochloride, to the SD90 of the test substance for the Dose of 36 mg/kg; assay type: functional
Mus musculus [30] = assay: Antimalarial effect against trophozoite induced Plasmodium berghei in mice (Mus musculus) at dosage of 40 mg/kg after subcutaneous administration; assay type: functional

SMILES	MST (Plasmodium berghei [1])	MST (Plasmodium berghei [2])	MST (Plasmodium berghei [6]; 40 mg/kg)	MST (Plasmodium berghei [7])	SD90 (Plasmodium berghei [8])	No. of survivals (Mus musculus [14])	MST (Plasmodium berghei [4])	MST (Plasmodium berghei [6])	further results
Clc1cc(Cl)cc(Nc2nc(NCCN3CCCC3)c3ccccc3n2)c1	5.9 days	0.5 days	0.9 days and 1.3 days	1.7 days	80 mg/kg/day				MST (Plasmodium berghei [3]): 10.7 days and 10.3 days; MST (Plasmodium berghei [4]; 160 mg/kg): 3.5 days and 4.1 days; Ratio [5]: 0.9
CCOc1ccc(Nc2nc(NCCN(CC)CC)c3ccc(Cl)cc3n2)cc1CN1CCCC1					>34 mg/kg/day				Ratio [9]: <2.2
CCN1CCC(CNc2nc(Nc3ccc(Cl)c(Cl)c3)nc3ccccc23)CC1		0.7 days	7.5 days and 7.3 days	9.1 days	8.4 mg/kg/day				No. of cured (Mus musculus [10]): 5 and 4; No. of cured (Mus musculus [11]): 5; MST (Plasmodium berghei [12]; 160 mg/kg): 23.9 days and 27.9 days; Ratio [13]: 8.9
CCN(CC)CCNc1nc(Nc2ccc(OC)c(CN(CC)CC)c2)nc2ccccc12		0.4 days		5.6 days	40 mg/kg/day	2	8.6 days	2.8 days	No. of survivals (Mus musculus [15]): 2; No. of toxic deaths (Mus musculus [16]): 1; No. of toxic deaths (Mus musculus [17]): 1; Ratio [18]: 1.9
CN(C)C1CCC(Nc2nc(Nc3ccc(Cl)c(Cl)c3)nc3ccccc23)CC1 (stereo in doubt; 23)			9.7 days and 9.9 days		8.5 mg/kg/day	5			MST (Plasmodium berghei [2]; 20 mg/kg): 0.9 days; MST (Mus musculus [19]): 25.4 days; MST (Mus musculus [20]): 25.9 days; Ratio [21]: 8.8; No. of survivals (Mus musculus [22]; 160 mg/kg): 3; MST (Plasmodium berghei [12]; 160 mg/kg): 27.4 days
Clc1ccc(Nc2nc(NCCN3CCCC3)c3ccccc3n2)cc1	18.2 days	0.1 days	0.7 days and 1.1 days	1.1 days	68 mg/kg/day		6.7 days		Ratio [23]: 1.1; MST (Plasmodium berghei [24]): 25.4 days; No. of cured (Mus musculus [11]; 640 mg/kg): 3 and 1; MST (Mus musculus [25]): 6.1 days; MST (Mus musculus [26]): 24.6 days
Clc1ccc(Nc2nc(NCCCN3CCCC3)c3ccccc3n2)cc1Cl					12 mg/kg/day	5		5.2 days	No. of survivals (Mus musculus [22]): 4; Ratio [27]: 12
CCN1CCC(CNc2nc(Nc3ccc(C(F)(F)F)cc3)c3ccccc3n2)CC1	8.9 days	0.3 days				4	7.3 days	0.5 days	No. of survivals (Mus musculus [15]): 3; MST (Plasmodium berghei [24]): 21.9 days; No. of survivals (Mus musculus [22]): 1; MST (Plasmodium berghei [12]): 3.9 days; MST (Mus musculus [28]): 9.4 days; MST (Plasmodium berghei [7]; 80 mg/kg): 0.5 days and 0.7 days
CCN1CCCC(Nc2nc(Nc3cc(Cl)cc(Cl)c3)nc3ccc(Cl)cc23)C1 (centres undefined)	6.4 days	0.2 days		0.6 days	36 mg/kg/day	3	1 days	0.2 days	MST (Plasmodium berghei [24]; 640 mg/kg): 7.8 days and 4.8 days; Ratio [29]: 2.1; MST (Mus musculus [30]): 0.4 days
